Results: patent US20240327421A1 (Marquette University, priority 2017, published 2024)
Entries after “also recorded” stand apart in the source; their conditions may differ.

How the values were obtained:
[1] = target: T1, CYP3A4 (Homo sapiens, UniProt P08684); test: P450-Glo CYP450 inhibition, CYP3A4; format: in vitro ADME; conditions: highest concentration 62.6 μM
T1 construct: purchased Promega Corporation (Madison, WI)
Procedure: In Vitro Druggability Assays-CYP450 Binding, hERG & Nephelometry. The P450-Glo™ Screening System from Promega Corporation (Madison, WI) was used to measure CYP450 (cytochrome P450) inhibition, as described in the kit instructions. Assays were run in 96-well white plates (Corning® 3912), and luminescence was measured on a SpectraMax M5 instrument (FIG. 6). The luminescence signal is proportional to the amount of luciferin product formed by the CYP reaction. Compounds were prepared in DMSO, then an eight-step 1:2 dilution series was made in DMSO. […] After adding the relevant Cytochrome P450 enzyme, the plate was incubated at 37° C. for 10 minutes to allow components to come to temperature. Next, the NADPH regeneration system was added to activate the reaction on a luminogenic P450-GloTM substrate, and incubated at 37° C. for 10-30 min, according to kit instructions for each CYP enzyme. The enzyme reaction was stopped by the addition of Luciferin Detection Reagent and luminescence of the plate was read in a Spectramax M5 (Molecular Devices) after a 20 min incubation at room temperature. Data were normalized to positive controls (α-naphthoflavone for CYP1A2, sulfaphenazole for CYP2C9, quinidine for CYP2D6, and ketoconazole for CYP3A4). Data analysis was with Prism software, as described above.

[2] = test system: ovariectomized mice; test: Peripheral tissue pathology (H&E of liver, kidney, heart); format: in vivo; conditions: 24 h after single IP injection; 0.5 or 5 mg/kg ISP358-2, 0.05 mg/kg DPN
Procedure: Assessment of Potential Peripheral Pathology. To assess possible toxicity of ISP358-2 treatment to peripheral organs, ovariectomized mice received a single intraperitoneal injection of vehicle or ISP358-2, and liver, kidney, and heart tissues were collected 24 hours later. […] Tissues were fixed in 10% formalin buffered solution for 24 hours. Twenty specimens were processed and analyzed. Each specimen contained three pieces of tissue. The tissues from each animal was transferred to a labeled cassette and processed on an automated tissue processor following standard procedures. The tissues were then embedded in paraffin wax. No specific orientation of the tissue was performed. Four-micron sections were cut from each paraffin block and placed onto a slide. The slides were then stained using hematoxylin and cosin (H&E) on an automated stainer (FIGS. 13A-13L). The slides were then examined by a pathologist (ACM) who is board certified in anatomical pathology by the American Board of Pathology. All specimens contained three tissue samples corresponding to liver, kidney, and heart. In some instances, portions of adjacent tissues were also present. […] For heart, the myocytes and coronary vessels were examined, (2) evidence of inflammation was evaluated including hepatitis, glomerulonephritis, interstitial nephritis, and myocarditis, and (3) evidence of ischemic changes was examined. […]

[3] = test system: ovariectomized mice; test: Object placement (spatial memory consolidation) test; conditions: for object placement: spatial memory consolidation after long-term ovariectomy: oral gavage 4 months after ovariectomy, same doses (0.5 or 5 mg/kg ISP358-2, 0.05 mg/kg DPN), preliminary

T1 sequence (P08684 whole entry): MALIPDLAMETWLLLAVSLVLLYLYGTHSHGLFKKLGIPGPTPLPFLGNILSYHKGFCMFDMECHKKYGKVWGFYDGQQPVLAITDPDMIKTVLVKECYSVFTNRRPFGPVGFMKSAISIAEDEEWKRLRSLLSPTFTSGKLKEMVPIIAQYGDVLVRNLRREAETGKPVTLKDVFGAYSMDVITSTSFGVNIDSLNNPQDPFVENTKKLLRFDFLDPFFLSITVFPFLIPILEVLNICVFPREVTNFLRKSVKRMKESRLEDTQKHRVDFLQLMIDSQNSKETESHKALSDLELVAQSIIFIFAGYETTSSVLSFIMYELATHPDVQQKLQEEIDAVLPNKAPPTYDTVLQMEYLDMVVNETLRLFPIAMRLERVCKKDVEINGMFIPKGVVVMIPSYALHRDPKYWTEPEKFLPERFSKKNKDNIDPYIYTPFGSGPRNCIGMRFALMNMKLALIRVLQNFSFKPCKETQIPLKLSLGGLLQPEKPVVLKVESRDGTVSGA

## OC[C@H]1CC[C@H](c2ccc(O)cc2)CC1 [Compound 16]
[1]
  CYP3A4 inhibition: no significant inhibition
  IC50: 89 ± 18 µM
[2]
  histological abnormalities / peripheral toxicity in liver, kidney, heart: unremarkable; also recorded: no obvious signs of peripheral toxicity; also recorded: Histological abnormalities were not detected
[3]; IP injection, 0.5 mg/kg, listed as ISP358-2, 0.5 mg/kg
  object placement: time with moved object / memory consolidation: spent significantly more time than chance with the moved object; also recorded: most effectively enhanced consolidation; also recorded: enhanced memory consolidation
[3]; IP injection, 5 mg/kg, listed as ISP358-2, 5 mg/kg
  object placement: time with moved object / memory consolidation: spent significantly more time than chance with the moved object; also recorded: also enhanced OP memory consolidation
[3]; dorsal hippocampal infusion, 10 pg/hemisphere, tested 24 h after training, chance 15 s
  object placement: time with moved object / memory consolidation: did not spend significantly more time than chance with the moved object
[3]; dorsal hippocampal infusion, 100 pg/hemisphere, tested 24 h after training, listed as ISP358-2
  object placement: time with moved object / memory consolidation: spent significantly more time than chance with the moved object; also recorded: enhanced memory consolidation; also recorded: significantly increased time was spent
[3]; dorsal hippocampal infusion, 1 ng/hemisphere, tested 24 h after training, listed as ISP358-2
  object placement: time with moved object / memory consolidation: spent significantly more time than chance with the moved object; also recorded: enhanced memory consolidation; also recorded: significantly increased time was spent
[3]
  object placement: spatial memory consolidation after long-term ovariectomy: did not enhance spatial memory consolidation
[3]; listed as ISP358-2
  object placement: spatial memory consolidation after long-term ovariectomy: neither DPN nor ISP358-2 affected memory
[3]; oral gavage, 0.5 mg/kg, within 1 month of ovariectomy, listed as ISP358-2, 0.5 mg/kg
  object placement: time with moved object / memory consolidation: exhibited a significant preference for the moved object relative to chance; also recorded: enhanced memory consolidation
[3]; oral gavage, 5 mg/kg, within 1 month of ovariectomy, listed as ISP358-2, 5 mg/kg
  object placement: time with moved object / memory consolidation: exhibited a significant preference for the moved object relative to chance; also recorded: most effective; also recorded: enhanced memory consolidation
